Tests used:
HeLa cells [1] = assay: MTT cell cytotoxicity assay, HeLa; assay type: cell-based, Human; conditions: Incubation time = 24 hours
Protocol: (§1) Human cervical cancer HeLa cells were grown in Dulbecco's Modified Eagle Medium (DMEM). Human lung normal diploid fibroblasts MRC-5 and neuroblastoma cells SK-N-SH were provided by Cell resource center of Shanghai Institute of Biological Sciences, Chinese Academy of Sciences; and cultured in MEM (GIBCO 41500034); Human derived liver cells QSG-7701 cells were grown in RPMI-1640 (GIBCO 31800022); all cells were supplemented with 10% (v/v) fetal bovine serum, 1% penicillin and streptomycin at 37° C. and 5% CO2.
(§2) HeLa, SKA-SH, QSG-7701 or MRC-5 cells treated with testing complexes for 24 hours were further incubated with MTT, 3-(4,5-dimethylthiazol-2-yl)-2 and 5-diphenyltetrazolium bromide (0.5 mg; ml) for 4 hours, to produce formazan during cell metabolism. Then, formazan was thoroughly dissolved by dimethyl sulfoxide (DMSO), and the absorbance of solutions was measured in Bio-Rad iMark microplate reader (570 nm). Quadruplicates were performed. Data analysis and plotting were operated by the GraphPad Prism 5 software.

SK-N-SH cells = assay: MTT cell cytotoxicity assay, SK-N-SH; assay type: cell-based, Human; conditions: Incubation time = 24 hours
Protocol: as §1, §2

QSG-7701 cells = assay: MTT cell cytotoxicity assay, QSG-7701; assay type: cell-based, Human; conditions: Incubation time = 24 hours
Protocol: as §1, §2

MRC-5 cells = assay: MTT cell cytotoxicity assay, MRC-5; assay type: cell-based, Human; conditions: Incubation time = 24 hours
Protocol: as §1, §2

[2] = Photophysical studies (absorption, emission, decay lifetime, quantum yield); assay type: physicochemical
Protocol: UV-Visible absorption spectra in the spectral range 200 to 1100 nm were recorded by an HP Agilent UV-8453 Spectrophotometer. The emission spectra and the emission decay lifetimes of HGEu001 and HGEu002 were measured by Horiba Fluorolog-3 spectrophotometer and also measured by Edinburgh instrument ELS920 spectrophotometer for cross checking. (Two spectrophotometers are equipped with a 450 W continuous xenon lamp for steady state emission measurement, 60 W xenon flashlamp for emission life time measurement and an UV-Vis PMT detector—Hamamatsu—R928 cooled 216 at −20° C.)
UV-Visible absorption spectra of HGEu001-Coumarin and HGEu001-Por were recorded by an HP Agilent UV-8453 Spectrophotometer. The emission spectra of HGEu001-Coumarin and HGEu001-Por were measured by Horiba Fluorolog-3 spectrophotometer, which was equipped with a 450 W continuous xenon lamp and a UV-Vis PMT detector—Hamamatsu—R928 cooled 216 at −20° C. for steady state emission measurement.

HeLa cells [3] = assay: Two-photon confocal in vitro imaging (subcellular localization); assay type: cell-based, Human; conditions: 10 μM; for localization of red emission: two-photon λex=700 nm
Protocol: Cells were seeded on coverslip in 35-mm culture dishes overnight. And then incubated with HGEu001 or HGEu002 (10 μM) for 6 hours, and the cells were washed by PBS 3 times before imaging. […] Then the unabsorbed complexes were washed out with PBS buffer and the cells were subject to microscopic imaging. The in vitro imaging of HGEu001 and HGEu002 were undertaken on a linear fluorescence microscopy under 375 nm UV light excitation or a confocal laser scanning microscope, Leica TCS SP8, equipped with a Ti:sapphire laser (Libra II, coherent). The excitation beam produced by 690 nm to 1080 nm (fs laser) was focused on the adherent cells through a 63× oil immersion objective.
3D images obtained by the Z-stacks form the two-photon confocal microscopy and the 3D reconstruction was done with built-in programs of Leica TCS SP8 confocal microscope.

GFP-ARL13B = assay: Co-localization imaging with primary cilia marker GFP-ARL13B; assay type: cell-based, Human; conditions: HeLa cells, 10 μM
Excerpt: (§3) (a) 3D Co-Localization Imaging of HGEu001 and HGEu002 with Primary Cilia Markers ARTL13B and IFT88.
(§4) Full length ARTL13B (ADP-ribosylation factor-like protein 13B) was PCR amplified from cDNA library and inserted into multiple cloning sites (MCS) of pEGFP-C3 (CLONETECH, #6082-1) using restriction digestion sites of XhoI/EcorI for GFP-ARTL13B expression. […] Plasmid mEmerald-IFT88-N-18 (intraflagellar transport protein 88 homolog) expressing GFP-IFT88 was a gift from Michael Davidson (Addgene plasmid #54125). Plasmids were amplified in E. coli (DH5α) and purified using a StarPrep Plasmid Miniprep Kit (Genstar). Both GFP-ARL13B and GFP-ITF88 for primary cilium tracking were expressed in HeLa cells through lipofectamine2000 (Cat. No.11668-019, Invitrogen) mediated transfection. Briefly, a 3.5 cm dish of HeLa cells (with 70-80% confluent) was transfected with 4 μg DNA plus 4 μL lipotectamine2000 mixture according to the manufacturer instructions. After incubation for 8 hours, 10 μM of HGEu001 or HGEu002 were added and incubated for 6 hours.

GFP-IFT88 = assay: Co-localization imaging with primary cilia marker GFP-IFT88; assay type: cell-based, Human; conditions: HeLa cells, 10 μM, 6 hours, z stack, λex=700 nm
Excerpt: as §3, §4

[4] = system: organelles (mitochondria, lysosome and Golgi apparatus); assay: Co-localization imaging with organelle probes; assay type: cell-based, Human; conditions: HeLa cells, 10 μM, 6 hours, MitoTracker Green FM
Protocol: (b) Co-Localization Imaging of HGEu001 and HGEu002 with Organelles.
Live cell labeling probes of organelles (mitochondria, lysosome and Golgi apparatus) MitoTracker® Green FM (M-7514), LysoTracker® Green DND-26 (L-7526) and GolgiTracker® Oregon Green (W6748, Wheat Germ Agglutinin) were respectively purchased from ThermoFisher Scientic Inc. and stocked in −20° C.
Three dishes of HeLa cells (1×10^5) were first incubated with 10 μM HGEu001/HGEu002 for 6 hours. Then organelles probes (50 nM, each) were added in parallel to the cells and further incubated for 15 minutes. The cells were washed by PBS 3 times before imaging on the linear fluorescence microscopy. Under the excitation of UV light (375 nm) emission from the channel (610-630 nm) were collected for the emission signals from HGEu001/HGEu002. Under 488 nm blue light excitation, imaging channel in the range between 505 and 555 nm were collected from the emission signal of organelles dyes.

Structure (SMILES): CC(C)(C)NC(=O)CN1CCN(CC(=O)NC(C)(C)C)CCN(Cc2cc(C#Cc3ccc(NC(=O)c4ccc(C(F)(F)F)cc4)cc3)ccn2)CCN(CC(=O)NC(C)(C)C)CC1.O.[Cl-].[Cl-].[Cl-].[Eu+3] [HGEu002]
- IC50 (HeLa cells [1]): 417 µM
- IC50 (SK-N-SH cells): 437 µM
- IC50 (QSG-7701 cells): 410 µM
- IC50 (MRC-5 cells): 402 µM
- τ(D2O), europium emission decay lifetime ([2]; D2O, λem = 614 nm, 5D0→7F2, λex = 340 nm): 1.78 ms
- τ(H2O), europium emission decay lifetime ([2]; H2O, λem = 614 nm, 5D0→7F2, λex = 340 nm): 0.56 ms
- ε (absorption coefficient) ([2]; in H2O, 298K): 22200 M⁻¹ cm⁻¹
- λmax (absorption) ([2]; in H2O, 298K): 327 nm
- ΦL^Eu, overall europium emission quantum yield ([2]; in H2O, by integrated sphere): 10.3%
- q, derived hydration number ([2]; q (±20%), from k(H2O) and k(D2O)): 0.9
- localization of red emission (HeLa cells [3]; 3 hours incubation): localized in cytoplasm
- localization of red emission (HeLa cells [3]; 6 hours incubation): localized in cytoplasm
- europium emission in the rod-like organelles, three dimensional confocal images (HeLa cells [3]; 6 hours, z stack, excitation at 700 nm): did not show any europium emission in the rod-like organelles
- localization of red emission (HeLa cells [3]; 18 hours incubation): localized in cytoplasm
- localization of red emission (HeLa cells [3]; 24 hours incubation): localized in cytoplasm
- overlap of red emission with green emission of GFP-ARL13B (merged images) (GFP-ARL13B; 6 hour incubation after GFP transfection): only slight yellow emission can be found in their merged images
- merged emission on co-staining with GFP-ARL13B, three dimensional imaging (GFP-ARL13B; 6 hours, z stack, λex=700 nm): did not show merged yellow in vitro emission
- merged emission on co-staining with GFP-IFT88, three dimensional imaging (GFP-IFT88): did not show merged yellow in vitro emission
- merged emission with green mito-tracker, three dimensional imaging [4]: did not show merged yellow in vitro emission

Reference: US10787465B2, “Lanthanide toolbox for organelle specific molecular imaging with multi-color” (New Life Medicine Technology Company Limited, priority 2017, dated 2020)
